The values that follow come from patent US20180078576A1, “SULPHATED XYLANS FOR TREATMENT OR PROPHYLAXIS OF RESPIRATORY DISEASES” (Paradigm Biopharmaceuticals Limited, priority 2007, published 2018).

Usually IC50 stands for the concentration that gives 50% inhibition.

One data set concerns the target T1, eotaxin-2 (Homo sapiens, UniProt O00175).
T1 sequence (O00175 27-119): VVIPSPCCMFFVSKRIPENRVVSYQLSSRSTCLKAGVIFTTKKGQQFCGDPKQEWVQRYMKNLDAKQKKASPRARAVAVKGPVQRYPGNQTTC
In words: BIAcore inhibition of eotaxin-2 binding to immobilized heparin. To be noted: BIAcore chip, FIG. 3E. From the text:
The optical phenomenon of surface plasmon resonance is used to monitor physical interactions between molecules. Passing a solution of a potential protein ligand (e.g. IL-4, IL-5 or eotaxin) over a sensor surface to which a target (e.g. heparin) is coupled monitors the real-time binding of protein ligands to the immobilized target. Detection is achieved by measuring refractive index changes very close to the sensor surface. When the refractive index is altered, the angle at which plasmon resonance occurs changes and this change directly correlates with the amount of protein interacting with the surface. A BIAcore 2000 is conveniently used. […]
Biotinylated heparin is immobilized on the biosensor chip. […] Solutions containing potential protein ligands of interest are injected over the sensor chip surface, and the binding is measured in real time (Fernig, In: Proteoglycan protocols, Ed. R. V. Iozzo, Humana Press, Totowa, N.J., USA, 2001). Baculovirus expressed recombinant human IL-4 (rhIL-4) and baculovirus expressed recombinant human IL-5 (rhIL-5) readily bind to heparin immobilized by this method (see PCT/AU2005/000551). […] Similarly, recombinant human eotaxin (CCL11) expressed in E. coli binds readily to immobilized heparin and binding is specific as there is little eotaxin binding to sensor chips lacking heparin. […]

Data set [1] concerns the target recombinant human IL-2 (rhIL-2) (Homo sapiens, UniProt P60568). In words: IL-2 dependent CTL-Luc cell proliferation. In kind it is cell-based. The source says: The murine cytotoxic T lymphocytic line (CTLL) is a subclone of T cells derived from a C57bl/6 mouse. The cells require interleukin-2 (IL-2) for growth and are used to assay for its presence in conditioned media. The cells are responsive to both murine and human IL-2. CTLL cells have been transfected with the firefly luciferase gene contained in the expression vector, pPGK-puromycin-luciferase (Coombe et al, 1998, supra). The positive transfectants are cloned to produce a line with good luciferase expression and these cells are called CTL-Luc. The proliferation assays are carried out in 96-well microplates suitable for such assays (Falcon). […] The cells are counted with a Coulter Z2 Particle Counter and Size Analyzer (Coulter Electronics, England) and routinely 1.6×10^4 cells are added to microplate wells that contain either no recombinant human IL-2 (rhIL-2) (negative control) or various dilutions of rhIL-2. When the effect of PPS, or other sulfated polysaccharides is to be measured, the wells also contain various concentrations of these molecules.
The CTL-Luc cells proliferate for 24 hours at 37° C. in a humidified atmosphere, after which the luciferase activity is measured by the addition of 50 μl of luciferase substrate buffer (50 mM Tris-HCl, pH 7.8, 15 mM MgSO4, 33.3 mM DTT, 0.1 mM EDTA, 0.5 mM Na-luciferin, 0.5 mM ATP, 0.25 mM lithium Co A and 0.5% v/v Triton X-100). […]

For data set [2], the system named is Guinea-pigs sensitized to ovalbumin. The data set is described as follows: Guinea pig model of asthma, airway hyper-reactivity 24 h after OVA challenge. In kind it is in vivo. The settings on record: for Cdyn, % increase from that of the positive control / RL, % decrease from that of the positive control: Dexamethasone 15 mg/kg, glycan compounds 10 mg/kg, intratracheal microspray. On the procedure:
A guinea pig model of asthma was used. Guinea-pigs (8 per group) were sensitized to ovalbumin by two intraperitoneal injections of ovalbumin (grade V, 20 μg) in aluminium hydroxide gel on Days 1 and 11. On day 20 (24 hours prior to assessing airway hyper-reactivity (AHR)) each animal received a challenge dose of OVA—this took the form of a 1 hour aerosol exposure of OVA (10 μg). The negative control animals received, no sensitization and no challenge. The positive controls were sensitized and challenged but were either given no further treatment or were treated with vehicle (saline). Test compounds (PPS and the sulfated xylan pentasaccharide) and vehicle were administered by intratracheal administration as an aqueous microspray using a Penn Century device. The device used was the FMJ250 high pressure syringe and a 1A-1C microspray delivery tube. The particle size delivery goes up to 32 μm. During the study the volume delivered was 100 ul for all test formulations. The test compounds were administered 30 min before challenge with OVA. The animals underwent surgery 24 hours after challenge to insert a cannula into the trachea, the cannula was connected to the instrumentation which measured pressure and changes in airflow. After surgery the animals were allowed to stabilize for 10 min before baseline readings were taken. Bronchoconstriction was evoked with aerosolized methacholine (10 mg/ml and 30 mg/ml) for 20 seconds. The difference between baseline readings and that obtained after methacholine were used to calculate Cdyn and RL. Thus, measurements of lung function were taken approximately 25 hours after the drug was administered. Both pentosan polysulfate and the sulfated xylan pentasaccharide when administered at 10 mg/kg were effective in reducing the airway hyper-reactivity readings. Their efficacy was approximately equivalent to that usually seen with 7.5 mg/kg of dexamethasone in this model.

Marks after values point to notes of the source that are not given here.

Sequence of recombinant human IL-2 (rhIL-2) (P60568 21-153): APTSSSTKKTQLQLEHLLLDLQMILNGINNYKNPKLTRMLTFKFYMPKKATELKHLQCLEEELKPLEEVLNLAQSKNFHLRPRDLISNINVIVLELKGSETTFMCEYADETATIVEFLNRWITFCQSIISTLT

Substance Pentosan polysulfate [PPS] returned an IC50 on eotaxin-2 of roughly 15 nM. For the same substance, the “Effect on proliferation of CTL-Luc cells obtained with rhIL-2” value in data set [1] (10 μg/ml or 1 μg/ml, rhIL-2 1.25 ng/ml, FIG. 9) is recorded as “no effect”. In data set [1] (IL-2 and GM-CSF responsive cell lines, 10 and 1 μg/ml), the “Toxicity to cytokine dependent lymphocytic cell lines” value is “not toxic”. Moreover, the “Reduction of airway hyper-reactivity readings (in words)” value in data set [2] (10 mg/kg intratracheal microspray 30 min before OVA challenge) is “effective”. In data set [2] (MCh 10 mg/ml), the “Cdyn, % increase from that of the positive control” value stood at 38% * and the “RL, % decrease from that of the positive control” value is given as 32%. In data set [2] (MCh 30 mg/ml), the “Cdyn, % increase from that of the positive control” value is reported as 49% ** and the “RL, % decrease from that of the positive control” value came to 35% **.
